Measurements published in patent US20220105152A1, “Composition for and Method of Treating Hepatic Tissue Injury” (OHIO STATE INNOVATION FOUNDATION, priority 2019, published 2022).
Read-outs that look alike come from different tables or passages of the source.

Experiments:
[1] = test system: hepatocytes of C57BL/6J mice; experiment: Confocal imaging of fluorescent-labelled rhMG53 transfer from bloodstream to liver; type: in vivo; conditions: FIG. 3
From the text: We determined that MG53 transfers from the circulatory system to the liver upon occurrence of DILI. We used a mouse model of acetaminophen-induced (APAP-induced) hepatic injury to determine whether MG53 can transfer from circulation to the liver to target the injured hepatocytes.

[2] = molecular target: T1, RIPK3 (Homo sapiens, UniProt Q9Y572); experiment: Biochemical and molecular studies of E3-ligase substrate
T1 construct: endogenous in cells; host or cells: HepG2
T1 sequence (Q9Y572 whole entry): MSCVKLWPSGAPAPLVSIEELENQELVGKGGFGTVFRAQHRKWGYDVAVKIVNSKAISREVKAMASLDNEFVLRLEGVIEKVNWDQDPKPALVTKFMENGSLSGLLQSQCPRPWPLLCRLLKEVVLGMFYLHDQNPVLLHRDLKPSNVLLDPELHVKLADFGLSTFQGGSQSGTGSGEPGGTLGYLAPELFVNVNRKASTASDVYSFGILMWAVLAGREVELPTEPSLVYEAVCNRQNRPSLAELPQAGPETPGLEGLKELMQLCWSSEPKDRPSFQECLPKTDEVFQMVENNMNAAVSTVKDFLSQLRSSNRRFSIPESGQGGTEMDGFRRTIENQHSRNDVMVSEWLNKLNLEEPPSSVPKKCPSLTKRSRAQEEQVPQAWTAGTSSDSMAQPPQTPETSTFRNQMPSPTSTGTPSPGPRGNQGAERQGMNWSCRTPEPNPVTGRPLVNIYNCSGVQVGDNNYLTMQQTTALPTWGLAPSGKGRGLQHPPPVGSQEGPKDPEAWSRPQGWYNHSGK
From the text: (§1) We unexpectedly discovered that exogenous MG53 added to the circulatory system (blood) provides protection against hepatic tissue injury and provides therapeutic treatment of injured hepatic tissue. Addition of rhMG53 to APAP-treated hepatocytes improves membrane integrity and increases survival of the cells as evidenced by the reduced release of LDH and entry of fluorescent dyes. […] MG53 reduces MLKL phosphorylation and membrane translocation, thus leading to the […] of MLKL-mediated disintegration of the hepatocellular membrane. Through biochemical and molecular studies, we identified RIPK3 as an E3-ligase substrate for MG53. The systemically administered rhMG53 enters the injured hepatocytes to target polyubiquitination of RIPK3 for proteasome-dependent protein degradation. In this way, the intracellular action of MG53 adds defensive value to hepatocellular protection by reducing stress-induced activation of the RIPK3-MLKL death signaling.
Cell lysates (800 μg protein/mL supernatant) were incubated with anti-MG53 or anti-MLKL, anti-RIPK3 antibody (1 μg/mL) for 1 hour, and protein-G agarose at 4° C. for 12 hours. The immunoprecipitates were suspended in Laemmli buffer, boiled for 10 minutes, divided into 2 aliquots, electrophoresed, transferred, and subjected to immunoblotting with the anti-MLKL, anti-RIPK3, and anti-MG53 antibodies. […]

[3] = test system: HepG2 hepatocytes; experiment: MTT assay, APAP-injured HepG2; type: cell-based; conditions: rhMG53 10 or 50 μg/ml, APAP 10 mM, 24 h, FIG. 14A
Experimental: (§2) The data herein can be extrapolated to develop suitable protective doses for humans and large animals.
A hepatoma-derived HepG2 cell line was purchased from the China Cell Line Bank (Beijing China). Cells were cultured in DMEM containing 100 U/ml penicillin, 100 U/ml streptomycin, 10% FBS, and 3 mM glutamine at 37° C. with 95% air, and 5% CO2. […] Then, an MTT solution (5 mg/ml) was added to the cells, followed by incubation for another 4 h. Subsequently, the MTT solution was discarded, DMSO was added to each well, and absorbance was measured.

[4] = test system: HepG2 cells; experiment: Propidium iodide staining of necrotic cell death after APAP; type: cell-based; conditions: rhMG53 and APAP vs APAP only; FIG. 11
From the text: We also determined that exogenous MG53 can reduce the extent of hepatic cell death following injury of hepatic tissue.

[5] = test system: TAA chemical-induced liver injury in C57BL/6J mice; experiment: TAA-induced liver injury in mice; type: in vivo; conditions: TAA 200 mg/kg, rhMG53 i.p. after injury; FIGS. 12, 13
Experimental: (§3) We also determined the efficacy of exogenous MG53 to protection against DILI caused by other chemicals. MG53 provided protective benefits when evaluated against carbon tetrachloride (CCl4) and thioacetamide (TAA). C57BL/6J mice were injected with CCl4 or TAA to cause chemical-induced liver injury and subsequently treated with MG53 via i.p. administration (Example 7). Liver tissue was biopsied and examined under microscope. The extent of necrotic tissue formation and the level of AST expression were quantified.

[6] = test system: primary hepatocytes from wild-type and dysferlin−/− mice; experiment: Hypoxia/reoxygenation (H/R) injury of primary hepatocytes; type: cell-based; conditions: for cell viability of hepatocytes: 3 hours hypoxia, 3 hours reoxygenation, FIGS. 10A, 10B
Experimental: We also determined that the protective effect of MG53 could be extended beyond DILI to hypoxia/reoxygenation-induced (H/R-induced) liver injury. We isolated primary hepatocytes from wild-type and dysferlin−/− mice. […] With the addition of 10 μg/ml or 50 μg/ml of rhMG53, increased cell viability of hepatocytes was observed.
(§4) Primary hepatocytes were isolated from adult mice. To isolate primary murine hepatocytes, anesthetized and heparinized mice were subjected to a midline laparotomy and cannulation of the portal vein followed by liver perfusion with an EGTA-chelating perfusion buffer (190 mg EGTA, 900 mg glucose, 10 mL of 1 M HEPES, 400 mg KCl, 305 mg Na2HPO4.12H2O, 8 g NaCl, 88 mg Na2HPO4.2H2O, and 350 mg NaHCO3 into a final volume of 1 L of sterile dH2O). After perfusion with 0.4% collagenase buffer (560 mg CaCl2).2H2O, 10 mL of 1 M HEPES, 400 mg KCl, 305 mg Na2HPO4.12H2O, 8 g NaCl, 88 mg Na2HPO4. 2H2O, 350 mg NaHCO3, and 400 mg collagenase IV into a final volume of 1 L of sterile dH2O), livers were minced, and cells were dispersed in culture medium; hepatocytes and nonparenchymal cells were separated using low-speed centrifugation and 40% Percoll density gradient centrifugation.
Isolated mouse hepatocytes (2×10^5/well) were cultured on 24-well collagen-coated plates in William's Medium E (Gibco, Life Technologies, Foster City, Calif.) with 10% FBS at 37° C. with 5% CO2 for 4 hours. To assess the purity of primary hepatocytes, cells were subjected to BD Cytofix/Cytoperm and Fc Block (BD Biosciences) according to manufacturer's instructions. Hepatocytes were then stained with primary antibody against albumin (1 ug/1×10^6 cells; Novus Biologicals) and secondary AlexaFluor 594 antibody (1 ug/1×10^6 cells; Cellsignal) and analyzed by flow cytometry using a BD LSRFortessa (BD Bioscience)).

[7] = test system: mouse hepatocytes; experiment: MTT assay, APAP-injured mouse hepatocytes; type: cell-based; conditions: rhMG53 10 or 50 μg/ml, APAP 10 mM, 24 h, FIG. 14B
Experimental: as §2, §4
A hepatoma-derived HepG2 cell line was purchased from the China Cell Line Bank (Beijing China). Cells were cultured in DMEM containing 100 U/ml penicillin, 100 U/ml streptomycin, 10% FBS, and 3 mM glutamine at 37° C. with 95% air, and 5% CO2. […] Subsequently, the MTT solution was discarded, DMSO was added to each well, and absorbance was measured.

[8] = test system: APAP-induced hepatic injury in C57BL/6J mice; conditions: for therapeutic effect as determined by the survival rate: FIG. 8
[9] = test system: APAP-induced liver injury in mg53−/− mice; experiment: APAP-induced hepatotoxicity in mg53−/− mice; type: in vivo
Experimental: We determined, however, that the amount of endogenous MG53 provided by the body is on its own insufficient to overcome DILI. Pilot studies were conducted to explore the dose dependence of APAP-induced hepatotoxicity in mice. […] Therefore, the 350 mg/kg dose was used for the comparative studies with mg53−/− mice and their littermate wild-type controls.
We also determined whether exogenous MG53 administered to a subject might be sufficient to prevent or reduce the severity of DILI.
mg53−/− mice and their wild type littermates were generated, bred and genotyped as previously described (Cai, C., et al. MG53 nucleates assembly of cell membrane repair machinery. Nature cell biology 11, 56-64 (2009); Cai, C., et al. MG53 regulates membrane budding and exocytosis in muscle cells. The Journal of biological chemistry 284, 3314-3322 (2009); Cai, C., et al. Membrane repair defects in muscular dystrophy are linked to altered interaction between MG53, caveolin-3, and dysferlin. The Journal of biological chemistry 284, 15894-15902 (2009)), the entire disclosures of which are hereby incorporated by reference. To ensure data reproducibility, mouse tail samples are retained and cataloged for secondary future validation, if necessary. The mg53−/− mouse line has been previously validated.

[10] = test system: CCl4 chemical-induced liver injury in C57BL/6J mice; experiment: CCl4-induced liver injury in mice; type: in vivo; conditions: CCl4 2 ml/kg, rhMG53 i.p. after injury; FIGS. 12, 13
Experimental: as §3

[11] = test system: MLKL; experiment: MLKL phosphorylation and membrane translocation; type: cell-based
From the text: as §1, with “In this way, the intracellular action of MG53 adds defensive value to hepatocellular protection by reducing stress-induced activation of the RIPK3-MLKL death signaling.” left out
Crude extracts from dissected regions of the mouse liver were washed twice with ice-cold phosphate-buffered saline (PBS) and lysed in radio immunoprecipitation assay buffer (10 mM tris-HCl (pH 7.2), 150 mM NaCl, 1% NP-40, 0.5% SDS, and 0.5% deoxycholate), supplemented with a cocktail of protease inhibitors (Sigma) and phosphatase inhibitors (Thermo Scientific). […] Membranes were washed 3 times with TBS-T. Bound complexes were detected using the Odyssey Infrared Imaging System. Images were analyzed using the Odyssey Application Software to obtain the integrated intensities. […]

[12] = test system: APAP-treated hepatocytes; experiment: Membrane integrity of APAP-treated hepatocytes (LDH release, fluorescent dye entry); type: cell-based; conditions: rhMG53 added to APAP-treated hepatocytes
From the text: as §1
HpeG2 were seeded in 35 mm glass bottom dishes at a density of 1×10^4 cells/cm^2 and incubated over overnight. […] After rinsing with Tyrode's solution, the cells were mixed with FM1-43 dye. […] Dye entry into the cells was monitored continuously with fluorescence confocal microscope (Eclipse Ti-U, Nikon Corporation, Tokyo, Japan) immediately after mixing with the dye. […]

Alexa647-rhMG53: rhMG53 protein conjugated with an Alexa647 fluorescent probe
fluorescent signal in hepatocytes ([1]; 1 mg/kg intravenously prior to APAP 350 mg/kg i.p., injured hepatocytes): clearly visible
fluorescent signal in liver ([1]; 1 mg/kg intravenously, untreated mouse liver (no APAP)): no Alexa647-rhMG53 signal was visible

rhMG53: recombinant human MG53 protein (mitsugumin 53, TRIM72) obtained by E. coli fermentation
E3-ligase substrate identified [2]: RIPK3
protective activity against APAP-induced injury (viability) [3]: dose-dependent protective activity
necrotic cell death (PI staining) [4]: significant reduction
liver tissue injury (necrotic tissue formation, AST level) [5]: protective activity
cell viability of hepatocytes ([6]; 10 μg/ml): increased
cell viability of hepatocytes ([6]; 50 μg/ml): increased
AST in the culture medium ([6]; H/R-treated wild type hepatocytes): dose-dependent effect of rhMG53 in the reduction
protective activity against APAP-induced injury (viability) [7]: dose-dependent protective activity
necrotic injury to the liver tissue ([8]; rhMG53 1 mg/kg 12 hours after APAP 300 mg/kg i.p.): reduced
serum levels of AST ([8]; rhMG53 1 mg/kg 12 hours after APAP 300 mg/kg i.p., FIG. 9): reduction
serum levels of AST ([8]; rhMG53 1.0 mg/kg i.p. 30 min before 350 mg/kg APAP, FIG. 6): reduced
necrotic injuries to the mouse liver ([8]; rhMG53 1.0 mg/kg i.p. 30 min before 350 mg/kg APAP, FIG. 7A, 7B): ameliorated
survival rate ([8]; rhMG53 1.0 mg/kg i.p. 30 minutes before 500 mg/kg APAP, FIG. 5): increased
therapeutic effect as determined by the survival rate ([8]; rhMG53 1 mg/kg i.p. 1 h after APAP 500 mg/kg): most apparent
therapeutic effect as determined by the survival rate ([8]; rhMG53 1 mg/kg i.p. 6 hours after APAP 500 mg/kg): still evident
healing of liver tissue (immunofluorescent confocal imaging) ([8]; wt mice, exogenous MG53 before or after chemical-induced liver injury): improved healing
necrosis of hepatic tissue ([9]; exogenous MG53 administered to mg53−/− mice with injured liver tissue): substantial reduction
serum levels of AST ([9]; mg53−/− mice receiving rhMG53 treatment, APAP 350 mg/kg): reduced
healing of liver tissue (immunofluorescent confocal imaging) ([9]; mg53−/− mice, exogenous MG53 before or after chemical-induced liver injury): improved healing
survival of the mg53−/− mice ([9]; rhMG53 1 mg/kg i.p. prior to APAP 350 mg/kg, FIG. 4): improved
liver tissue injury (necrotic tissue formation, AST level) [10]: protective activity
MLKL phosphorylation and membrane translocation [11]: reduces
entry of fluorescent dyes [12]: reduced
release of LDH [12]: reduced
